{
  "source": "patent EP0381533A2",
  "about": "“Cyclic monophosphates of purine and pyrimidine acyclonucleosides” (Merck & Co., Inc., priority 1989, dated 1990)",
  "system": "Eisenhart Human Cytomegalovirus",
  "assay": "Human Cytomegalovirus (HCMV) Plaque Reduction Assay",
  "type": "cell-based",
  "conditions": "MRC-5 cells (human fetal lung); ~60 PFUs; plaques counted on day 6 post inoculation",
  "description": "Activity against Human Cytomegalovirus is determined by employing the Human Cytomegalovirus (HCMV) Assay. Two tissue culture assays are available; Cell Protection and Plaque Reduction. Both assays utilize MRC-5 cells (human fetal lung) and Eisenhart Human Cytomegalovirus. The following is a description of the Cell Protection and Plaque Reduction Assays.\nEight-two fold dilutions are made of the compound to be tested. After the dilutions are made, 0.5 ml of each dilution is added to each of three decanted wells of MRC-5. Two wells are used to determine the antiviral activity of the compound to be tested and one well is used to determine toxicity. The MRC-5 plates are then decanted, and the wells are infected with 0.1 ml of Human Cytomegalovirus inoculum containing ∼60 PFUs. The plates are then adsorbed for 1 hour at 37°C/5% CO₂. After one hour the virus is removed from the wells and duplicate wells are refed with dilutions of the compound to be tested. The plates are then incubated at 37°C/5% CO₂. Plaques are counted microscopically on day 6 post inoculation.",
  "data": [
    {"compound": "Nc1nc2c(ncn2COC2COP(=O)(O)OC2)c(=O)[nH]1", "note": "(stereo not drawn) [Sodium 9-[(2-hydroxy-1,3,2-dioxophosphorinan-5-yl)-oxymethyl]guanine P-oxide]", "values": [
      {"measurement": "Plag Red", "result": 0.19, "unit": "µg/mL"}
    ]},
    {"compound": "Nc1ccn(COC2COP(=O)(O)OC2)c(=O)n1", "note": "(stereo not drawn) [Sodium 1-[(2-hydroxy-1,3,2-dioxophosphorinan-5-yl)-oxymethyl]cytosine P-oxide]", "values": [
      {"measurement": "Plag Red", "result": 25.00, "unit": "µg/mL"}
    ]},
    {"compound": "Nc1nc2c(ncn2COC(CO)CO)c(=O)[nH]1", "note": "[2-amino-1,9-dihydro-9-((2-hydroxy-1-(hydroxymethyl)-ethoxy)methyl)-6H-Purin-6-one]", "values": [
      {"measurement": "Plag Red", "result": 0.78, "unit": "µg/mL"}
    ]}
  ]
}
